This note sets out measurements from US11198696B2, “Substituted xanthines as inhibitors of transient receptor potential cation channel subfamily c, member 5 activity” (Boehringer Ingelheim International GmbH, priority 2018, dated 2021).

Molecules are shown by their SMILES.

The test deals with T1, TRPC5 (Homo sapiens, UniProt Q9UL62).
T1 construct: expressed in transfected cells; host or cells: HEK293 TREx cells, inducible TRPC5 expression, induced 20-48 hours
T1 sequence (Q9UL62 1-973): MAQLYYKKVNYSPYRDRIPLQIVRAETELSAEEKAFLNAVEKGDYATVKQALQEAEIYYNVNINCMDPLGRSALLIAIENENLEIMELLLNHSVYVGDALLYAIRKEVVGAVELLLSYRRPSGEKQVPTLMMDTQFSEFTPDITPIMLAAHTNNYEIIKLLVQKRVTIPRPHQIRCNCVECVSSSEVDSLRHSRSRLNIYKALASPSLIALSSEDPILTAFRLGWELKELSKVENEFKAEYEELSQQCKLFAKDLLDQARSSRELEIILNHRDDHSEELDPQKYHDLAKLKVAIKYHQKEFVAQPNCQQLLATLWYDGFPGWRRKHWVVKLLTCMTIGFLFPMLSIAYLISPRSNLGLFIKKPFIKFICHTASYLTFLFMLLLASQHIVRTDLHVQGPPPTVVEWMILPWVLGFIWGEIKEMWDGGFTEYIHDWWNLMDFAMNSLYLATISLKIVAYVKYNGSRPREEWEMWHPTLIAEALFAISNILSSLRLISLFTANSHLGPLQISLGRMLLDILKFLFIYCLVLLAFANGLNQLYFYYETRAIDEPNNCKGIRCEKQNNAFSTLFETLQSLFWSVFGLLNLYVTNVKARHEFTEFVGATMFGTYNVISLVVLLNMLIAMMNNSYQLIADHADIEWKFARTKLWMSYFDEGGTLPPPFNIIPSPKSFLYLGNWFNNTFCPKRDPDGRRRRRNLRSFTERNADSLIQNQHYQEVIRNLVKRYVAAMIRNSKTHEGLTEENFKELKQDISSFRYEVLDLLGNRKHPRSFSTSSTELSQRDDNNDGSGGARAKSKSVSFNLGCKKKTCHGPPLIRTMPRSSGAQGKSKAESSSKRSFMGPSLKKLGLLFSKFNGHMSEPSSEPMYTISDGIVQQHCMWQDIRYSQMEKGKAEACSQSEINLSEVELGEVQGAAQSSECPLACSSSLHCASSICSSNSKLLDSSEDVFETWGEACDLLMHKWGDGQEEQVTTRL
In words: Assay A: Determination of TRPC5-Inhibition (whole-cell patch clamp). The class given is cell-based. To be noted: LaCl3-activated current. The source says: Assay A: Determination of TRPC5-Inhibition
Patch clamp experiments permit the detection of currents through the TRPC5 channel in a cell line. In normal whole-cell patch clamp recordings, a glass electrode is brought into contact with a single cell and a high-resistance (gigaohm) seal is established with the cell membrane. The membrane is then ruptured to achieve the whole-cell configuration, permitting control of the voltage of the cell membrane and measurement of currents flowing across the membrane using the amplifier attached to the electrode and resulting in the replacement of cytoplasm with the pipette solution. A perfusion system permits control of the extracellular solution, including the addition of blockers and activators of the current. The current can be activated by including 1.4 μM free Ca2+ in the pipette (intracellular) solution, and 80 μM LaCl3 in the extracellular solution.
TRPC5 cells were induced 20-48 hours, removed from growth plates, and replated at low density (to attain good single-cell physical separation) on glass coverslips for measurement. In some cases, cells were grown in low density overnight on glass coverslips. Patch clamp recordings were made in the whole-cell mode with a holding potential of −40 mV. Every 5 seconds, a voltage ramp was applied from −120 to +100 mV, 400 ms in duration. Currents elicited were quantified at −80 mV and +80 mV. The internal solution consisted of 140 mM cesium aspartate, 10 mM HEDTA, 2 mM CaCl2, 2.27 mM MgCl2 and 10 mM HEPES, pH 7.2, with 1,400 nM calculated free Ca2+. The external solution consisted of 150 mM NaCl, 4.5 mM 15 KCl, 1 mM MgCl2, 2 mM CaCl2, 10 mM HEPES, 10 mM glucose, 1 mM EGTA, pH 7.4. Upon addition of LaCl3, TRPC5 current was induced only in TRPC5-expressing cells and not in parental HEK293 TREx cells. Removal of the LaCh stimulus causes most of the current to go away. Potential blockers were tested for ability to block both inward and outward currents in the continued presence of LaCl3.
IC50 of a compound of the invention was estimated by testing the compound 500 nM. […] Compounds blocking 50% or more at 500 nM are retested at multiple concentrations, and the % block is fitted by standard equations to determine IC50 accurately, using a 5/6 point concentration-response experiment.
For orientation: Patch clamp records ionic current or voltage across a cell membrane.

Setting [1] is: compounds of the present invention, TRPC5-expressing HEK293 TREx cells.
Where [2] appears, read: closest prior art compounds of WO2014/143799, TRPC5-expressing HEK293 TREx cells.

Broadly, the IC50 is the concentration that gives 50% inhibition. The compound `CCn1c(=O)n(CCCO)c(=O)c2c1nc(-c1ccc(OC3CC(F)(F)C3)nc1C)n2Cc1ccc(F)cc1` [Example 47] gave an IC50 under setting [1] of 0.859 nM.

The compound `CCn1c(=O)n(CCCO)c(=O)c2c1nc(-c1ccc(OC3CCC3)nc1)n2Cc1ccc(Cl)cc1` [Example 48] came in with an IC50 under setting [1] of 0.873 nM.

On to `CCn1c(=O)n(CCCO)c(=O)c2c1nc(-c1ccc(OC3CCC3)nc1)n2Cc1ccc(C2CC2)cc1` [Example 49], for which, under setting [1], 1.01 nM corresponded to half-maximal inhibition (IC50).

Under setting [1], `CCn1c(=O)n(CCCO)c(=O)c2c1nc(-c1ccc(OC3CCC3)nc1C)n2Cc1ccc(F)cc1` [Example 50] came in with an IC50 of 1.16 nM.

For `CCn1c(=O)n(CCCO)c(=O)c2c1nc(-c1ccc(OC3CCC3C)nc1)n2Cc1ccc(F)cc1` (centres unmarked) [Example 51], the IC50 under setting [1] is 1.36 nM.

The compound `CCn1c(=O)n(CCCO)c(=O)c2c1nc(-c1ccc(OC3CCC3)nc1C)n2Cc1ccccc1` [Example 52] displayed a concentration for half-maximal inhibition (IC50) under setting [1] of 1.58 nM.

Compound `CCn1c(=O)n(CCCO)c(=O)c2c1nc(-c1ccc(OC3CCC3)nc1)n2Cc1ccc(Cl)cc1F` [Example 53] returned an IC50 under setting [1] of 1.59 nM.

Consider `CCn1c(=O)n(CCCO)c(=O)c2c1nc(-c1ccc(OC3CCC3)nc1)n2Cc1ccc(C(F)(F)F)cc1` [Example 54], for which it took 1.6 nM to reach half-maximal inhibition under setting [1] (IC50).

`CCn1c(=O)n(CCCO)c(=O)c2c1nc(-c1ccc(OC3CCC3)nc1)n2Cc1ccc(C)cc1` [Example 55] gave an IC50 under setting [1] of 2.16 nM.

In turn, `CCn1c(=O)n(CCCO)c(=O)c2c1nc(-c1ccc(OC3CCC3)nc1)n2Cc1ccc(F)c(F)c1` [Example 56] showed an IC50 under setting [1] of 2.64 nM.

As to `C#Cc1ccc(Cn2c(-c3ccc(OC4CCC4)nc3)nc3c2c(=O)n(CCCO)c(=O)n3CC)cc1` [Example 57], under setting [1], the IC50 worked out at 2.66 nM.

As to `CCn1c(=O)n(CCCO)c(=O)c2c1nc(-c1ccc(OC3CCC3)nc1)n2Cc1cc(F)cc(F)c1` [Example 58], the IC50 under setting [1] worked out at 3.67 nM.

`CCn1c(=O)n(CCCO)c(=O)c2c1nc(-c1ccc(OC3C[C@@H]4C[C@@H]4C3)nc1C)n2Cc1ccc(F)cc1` (some centres unmarked) [Example 59] registered an IC50 under setting [1] of 1.73 nM.

Consider `CCn1c(=O)n(CCCO)c(=O)c2c1nc(-c1ccc(OC3CCC3C)nc1C)n2Cc1ccccc1` (centres unmarked) [Example 60], for which half-maximal inhibition under setting [1] (IC50) was put at 2.09 nM.

Regarding `CCn1c(=O)n(CCCO)c(=O)c2c1nc(-c1ccc(OC3CCCC3)nc1C)n2Cc1ccccc1` [Example 61], under setting [1], the IC50 was determined as 2.43 nM.

In the case of `CCn1c(=O)n(CCCO)c(=O)c2c1nc(-c1ccc(OC3CCC3)nc1F)n2Cc1ccc(F)cc1` [Example 62], half-maximal inhibition under setting [1] (IC50) was put at 3.37 nM.

As for `CCn1c(=O)n(CCCO)c(=O)c2c1nc(-c1ccc(OC3CCC3C)nc1)n2Cc1ccccc1` (centres unmarked) [Example 63], the IC50 under setting [1] amounted to 3.15 nM.

`CCn1c(=O)n(CCCO)c(=O)c2c1nc(-c1ccc(OC3CCC3)nc1)n2Cc1ccc(F)cc1` [Example 64] registered an IC50 under setting [1] of 2.71 nM.

As for `COc1ccc(-c2nc3c(c(=O)n(CCCO)c(=O)n3C)n2Cc2ccccc2)cc1` [Example 441 in WO2014/143799, reference compound], 324 nM corresponded to half-maximal inhibition under setting [2] (IC50).

In turn, `COc1ccc(-c2nc3c(c(=O)n(CCCO)c(=O)n3C)n2Cc2ccc(F)cc2)cc1` [Example 465 in WO2014/143799, reference compound] yielded an IC50 under setting [2] of 52 nM.
